Results from patent US5340929A, “Trisazo dye and dye composition containing the same” (Orient Chemical Industries, Ltd., priority 1992, dated 1994).
Where two headings read alike, the source gives them in different places.

Experiments:
[1] = prior art statement, background; cited from earlier work
[2] = prior art statement, background; cited from earlier work; remark: listed apart in the source
[3] = Water resistance of writing (drawdown paper dipped in tap water, reflection density); assay type: physicochemical; settings: drawndown paper, 3% dye solution, air-dried one day
Method: Light resistance: The resulting dye was dissolved in a 5% aqueous diethylene glycol solution to obtain a 3% dye solution. […] A degree of discoloration was compared with that before testing.
Water resistance: The drawndown paper was air-dried for one day and dipped in tap water.
A: Reflection density is more than 70% of that before testing.
B: Reflection density is 50 to 70% of that before testing.
C: Reflection density is less than 50% that before testing.

strains TA98 [4] = assay type: cell-based
Method: Further, the trisazo dye of the present invention is a nontoxic trisazo dye which gives negative results in a back mutation test using an organism, which is generally known as a test method for evaluating toxicity, i.e. AMES test (mutation test).
Evaluation method of Ames test
Regarding various specimen solutions respectively containing a trisazo dyes obtained in Examples 1 to 8 of the present invention and dyes of Comparative Examples 1 to 3, the number of mutant colonies was determined using strains TA98. 2. When the ratio is less than 2, it is "negative" and, when the ratio is more than 2, it is "positive", and the results are shown in Table. 1.

Hue of dye / writing = assay type: physicochemical
strains TA98 [5] = settings: prior art statement, background; cited from earlier work

In the case of `Nc1cc2c(O)c(N=Nc3ccc(N=Nc4ccc(S(=O)(=O)[O-])cc4)c4ccc(S(=O)(=O)[O-])cc34)c(S(=O)(=O)[O-])cc2cc1S(=O)(=O)[O-].[Na+].[Na+].[Na+].[Na+]` [Food Black 2], the “Water resistance of aqueous ink” value [1] is given as “poor” and the “Light resistance of aqueous ink” value [2] is given as “poor”.
For `Nc1ccc(N=Nc2ccc(Nc3ccc(N=Nc4c(S(=O)(=O)O)cc5cc(S(=O)(=O)O)c(N=Nc6ccccc6)c(O)c5c4N)cc3S(=O)(=O)O)cc2)c(O)c1` [compound 1, C.I. Direct Black 168, reference compound], the “Writing evaluation: Water resistance” value [3] was “C (Reflection density is less than 50% that before testing.)”, the “Ames test: ratio of the number of colonies to control” value (from here on “Ames test: ratio”) (strains TA98 [4]; TA98, S-9 (+), 20 μg/plate) was 0.83 and the “Ames test: ratio” value (strains TA98 [4]; TA98, S-9 (+), 78 μg/plate) was 0.88. The “Ames test: ratio” value (strains TA98 [4]; TA98, S-9 (+), 313 μg/plate) was 1.08, the “Ames test: ratio” value (strains TA98 [4]; TA98, S-9 (+), 1250 μg/plate) was 1.38 and the “Ames test: ratio” value (strains TA98 [4]; TA98, S-9 (+), 5000 μg/plate) was 3.38. The “Ames test: ratio” value (strains TA98 [4]; TA98, S-9 (-), 20 μg/plate) was 0.82, the “Ames test: ratio” value (strains TA98 [4]; TA98, S-9 (-), 78 μg/plate) was 1.13 and the “Ames test: ratio” value (strains TA98 [4]; TA98, S-9 (-), 313 μg/plate) was 0.88. For the same compound, the “Ames test: ratio” value (strains TA98 [4]; TA98, S-9 (-), 1250 μg/plate) was 0.88, the “Ames test: ratio” value (strains TA98 [4]; TA98, S-9 (-), 5000 μg/plate) was 0.88 and the AMES evaluation (strains TA98 [4]; TA98, positive/negative from ratio of colonies to control) was “False positive”. The Hue (Hue of dye / writing) was “Reddish”, the Hue (Hue of dye / writing; listed as Comparative Example 1) was “Reddish black” and the Ames test result (strains TA98 [5]) was “false positive or positive”.
